In article PMC5054527, “Mechanism of high affinity inhibition of the human urate transporter URAT1” (Scientific Reports, 2016):
Residue numbers refer to the chain shown, from its start. Where two headings read alike, the source gives them in different places.

Tests used:
Test in all cases: URAT1 uric acid transport activity assay
Assay type in all cases: cell-based
[1] = target: T1, r-Y365F rURAT1 point mutant (Rattus norvegicus, UniProt Q3ZAV1, Y365F); settings: for fold increased affinity of r-Y365F compared to rURAT1: from IC50 values
T1 sequence (Q3ZAV1 1-553 Y365F): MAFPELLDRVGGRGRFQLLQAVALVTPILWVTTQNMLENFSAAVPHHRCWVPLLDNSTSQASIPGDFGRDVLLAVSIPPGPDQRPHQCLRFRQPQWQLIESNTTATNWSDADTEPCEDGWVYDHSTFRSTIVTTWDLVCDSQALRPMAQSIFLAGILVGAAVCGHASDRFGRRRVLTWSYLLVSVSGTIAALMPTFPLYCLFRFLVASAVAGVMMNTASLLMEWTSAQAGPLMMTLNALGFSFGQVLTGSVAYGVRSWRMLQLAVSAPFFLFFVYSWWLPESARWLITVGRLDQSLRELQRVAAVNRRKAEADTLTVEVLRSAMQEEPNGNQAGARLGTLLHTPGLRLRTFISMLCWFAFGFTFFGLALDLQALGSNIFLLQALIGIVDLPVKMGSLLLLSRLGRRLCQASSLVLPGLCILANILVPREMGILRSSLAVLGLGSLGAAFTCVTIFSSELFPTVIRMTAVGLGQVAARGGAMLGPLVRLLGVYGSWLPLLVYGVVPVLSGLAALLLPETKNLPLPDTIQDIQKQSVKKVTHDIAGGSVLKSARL
From the text: (§1) hURAT1 (GenBank BC053348.1) and rURAT1 (NCBI NM_001034943.1) genes were purchased from Origene Technologies, Inc. and subcloned into pCMV6/neo using NotI, creating pCMV6/neo-hURAT1 and pCMV6/neo-rURAT1. Mutants were produced by polymerase chain reaction (PCR) or site-directed mutagenesis using the QuikChange Lightning Multi Site-Directed Mutagenesis Kit (Agilent Technologies). […] Detailed methods are provided in Supplementary Methods, and primers are listed in Supplementary Table 1. […] Residues in rURAT1 and hOAT1 that correspond to the residues in hURAT1 were identified from aligned protein sequences (Supplementary Fig. 1)[50].
(§2) DNA (10 μg) was mixed with 30 μl of DreamFect Gold (Boca Scientific) in 2 ml OptiMem (Life Technologies). After 20 minutes, 18 ml of media containing 2 × 10^7 cells in suspension was added and mixed, and 200 μl per well were plated onto white clear-bottomed poly-D-lysine coated 96-well plates (BD Biosciences). The cells were assayed the following day.
(§3) Compounds were serially diluted into assay buffer and added to the cells for 5 minutes prior to addition of radiolabelled uric acid substrate. URAT1-expressing cells were incubated with 100 μM ^14C-uric acid for 10 minutes. […] Each treatment was measured in triplicate.
(§4) Unlabelled uric acid was prepared at a 20 mM stock just prior to use in a solution containing 20 mM dibasic potassium phosphate and 20 mM potassium hydroxide.
(§5) Nonlinear regression analyses using GraphPad Prism software were used to calculate the potency of URAT1 inhibitors (IC50 values) from log (inhibitor) versus response - variable slope (four parameters) equations. Statistical significance was assessed using Student’s unpaired t-tests.

[2] = target: T2, r-T26V rURAT1 point mutant (Rattus norvegicus, UniProt Q3ZAV1, T26V)
T2 sequence (Q3ZAV1 1-553 T26V): T1 sequence (Q3ZAV1 1-553 Y365F) with T26V, F365Y
From the text: as §1, §2, §3, §4, §5

[3] = target: T3, r-V22M rURAT1 point mutant (Rattus norvegicus, UniProt Q3ZAV1, V22M)
T3 sequence (Q3ZAV1 1-553 V22M): T1 sequence (Q3ZAV1 1-553 Y365F) with V22M, F365Y
From the text: as §1, §2, §3, §4, §5

[4] = r-Y365F, MES pH 5.5, 100 μM 14C-uric acid, read-out: IC50 (uric acid transport)

O=c1[nH]c(=O)c2[nH]c(=O)[nH]c2[nH]1 [uric acid]
fold increased affinity of r-Y365F compared to rURAT1 [1]: 1.6 fold | IC50 [1, 4]: 1640 µM

CCc1oc2ccccc2c1C(=O)c1cc(Br)c(O)c(Br)c1 [benzbromarone]
IC50 [2]: 26 ± 4.4 µM | IC50 [3]: 20 ± 2.7 µM | IC50 [1]: 9.4 ± 1.6 µM

O=C(O)CSc1nnc(Br)n1-c1ccc(C2CC2)c2ccccc12 [lesinurad, 2-((5-bromo-4-(4-cyclopropylnaphthalen-1-yl)-4H-1,2,4-triazol-3-yl)thio)acetic acid]
IC50 ([2]; r-T26V, MES pH 5.5, 100 μM 14C-uric acid, read-out: IC50 (uric acid transport)): 76 ± 2.3 µM | IC50 ([3]; r-V22M, MES pH 5.5, 100 μM 14C-uric acid, read-out: IC50 (uric acid transport)): 74 ± 8.9 µM | IC50 [1, 4]: 15 ± 3 µM

O=C1C(CC[S+]([O-])c2ccccc2)C(=O)N(c2ccccc2)N1c1ccccc1 (stereo not drawn) [sulfinpyrazone]
IC50 ([2]; r-T26V, HEPES pH 7.3, 100 μM 14C-uric acid, read-out: IC50 (uric acid transport)): 655 ± 191 µM | IC50 ([3]; r-V22M, HEPES pH 7.3, 100 μM 14C-uric acid, read-out: IC50 (uric acid transport)): 762 ± 177 µM | fold increased affinity of r-Y365F compared to rURAT1 [1]: 2.7 fold | IC50 ([1]; r-Y365F, HEPES pH 7.3, 100 μM 14C-uric acid, read-out: IC50 (uric acid transport)): 255 ± 27 µM
